Laboratory results published in article PMC8786932, “Bicyclic azetidines target acute and chronic stages of Toxoplasma gondii by inhibiting parasite phenylalanyl t-RNA synthetase” (Nature Communications, 2022).
pEC50: −log10 of the molar value. Like-named read-outs stand apart in the source and are kept apart here.

What was measured:
[1] = system: T. gondii residual infection; experiment: ELISA of survivors and bioassay of brain homogenate into naive recipient mice; format: in vivo, Ifngr1-/- mice
Protocol: Testing of compounds to prevent reactivation of chronic infection was […] to test the efficacy of PheRS inhibitors against chronic infection. In both cases, male and female C57BL/6 Ifngr1^−/− mice were infected by oral gavage with 5 cysts of the ME49-Fluc strain isolated from chronically infected CBA/J mice. Compound BRD7929 was formulated at 1 mg/mL in freshly prepared compound resuspension buffer (vehicle; 10% ETOH, 4% Tween-80 in 1xPBS), aliquoted for single use and stored at −20 °C. In the first protocol, at 48 h post-infection, animals were given sulfadiazine (0.25 g/L in drinking water) for 20 days post-infection to prevent death during acute infection and to allow establishment of chronic infection. Two days after completion of the sulfadiazine treatment, one cohort of mice were treated once a day with 10 mg/kg BRD7929 by oral gavage for 16 days and control mice received an equal volume of vehicle during the same time frame. Animals were monitored for survival and weight loss for 30 days post-treatment. […] All mice were monitored for survival and weight loss every two days for the duration of treatment and for an additional >20 days post-treatment. […] Recipient mice were monitored for 20 days for survival, weight loss, and seroconversion by ELISA.

[2] = system: firefly luciferase expressing T. gondii strains (GT1, RH, ME49, CTG, MAS, RUB, FOU, VAND); experiment: Luciferase-based growth assay, FLuc parasites of diverse genotypes; format: cell-based; settings: Toxoplasma gondii
Protocol: In vitro cultures of HFF cells containing mature vacuoles were scraped, passaged through 23 g blunt end needles, and filtered using 3 micron filters. Purified parasites were resuspended in 350 μL of cytomix plus[49] and combined in a BTX 4 mm gap cuvette with 30 μL of PCR amplified templates corresponding to mutations of interest and 10 μg of pSAG1:Cas9-GFP U6:sgTgPheRS^[mut] (in 20 μL, 400 μL total volume, see Supplementary Data 1 for sgRNA sequences) prior to electroporation using a BTX ETM 830 electroporator. Amplified templates for TgPheRS mutations were generated from gBlocks (Integrated DNA Technologies, Coralville, IA, USA) that contain a BclI restriction site that replaces the PAM sequence to protect the repair template from being cut by Cas9. At 16 h post-transfection, transgenic parasites expressing pSAG1:Cas9-GFP were sorted on a Sony SH800 FACS sorter directly into 96-well plates. Single clones containing TgPheRS^[mut] were identified by amplifying a ~500 bp PCR fragment around introduced mutation followed by digestion using BclI (New England Biolabs) BclI sensitive clones were expanded and the locus was Sanger sequenced to verify incorporation of each independent mutation. To generate firefly luciferase (FLuc) expressing strains, freshly harvested parasites were combined with 20 μg of pTUB-FLUC DHFR flox plasmid and 10 μg of pSAG1:Cas9-GFP U6:sgUPRT[50] (in 50 μL cytomix plus) and transformed by electroporation as described above. Parasites were allowed to recover overnight followed by sequential selection with pyrimethamine (1.0 μM) and 5-flurodeoxyuracil (FUDR, 10 μM), as described previously. Stable clones were isolated by limiting dilution and a clone from each genetic background selected based on high luciferase activity (Table 1).
All assays were carried out in a 96-well plate format containing confluent HFF monolayers to support parasite growth. To avoid edge effects, only the inner 60 wells of each plate were used. All compounds described were provided by the Broad Institute as 10 mM stocks in 100% DMSO and stored at −80 °C prior to use. Pyrimethamine (Sigma-Aldrich) was prepared as 5 mM stock in 100% DMSO and stored at −20 °C prior to use.

[3] = system: HFF (primary human foreskin fibroblast); experiment: in vitro; format: cell-based; settings: EC50 host cell/EC50 T. gondii
Protocol: For the toxicity screen, compounds were tested in 96-well plates using all the wells as no edge affect was observed. Compounds were diluted to 40 μM (2x concentration in 10% DMEM, 0.4% DMSO) before step-wise, 3-fold dilution in 10% DMEM to create 10-dose series (20 μM to 0.001 μM). Host cells were plated in black, μ-Clear 96-well plates (Greiner Bio-One). We compared several lineages including HepG2 (human hepatocellular carcinoma (ATCC-HB-8065)), THP-1 (human monocytic tumor line), SH-SY5Y (human neuroblastoma (ATCC CRL-2266)), A549 (human lung carcinoma (ATCC CRM-CCL-185)) and Caco-2 (human intestinal adenocarcinoma (ATCC HTB-37)) and HFF (primary human foreskin fibroblast) obtained from the laboratory of John Boothroyd at Stanford University. Cells were maintained in culture media according to the formulations recommended by ATCC. Cells were plated at a density (ranging from of 5 × 10^3 to 2 × 10^4 cells/well (100 μL vol)) resulting in sub-confluent monolayers to allow expansion during the 2 day growth assay. THP-1 cells were treated with 10 ng/ml phorbol 12-myristate 13-acetate (PMA) for 24 h to differentiate into macrophages before compound addition. For all other cells, compounds were added at 6 h post seeding to host cells containing plates (200 μL final volume, 0.2% DMSO) and incubated in culture medium at 37 °C supplemented with 5% CO2. At 44 h post compound addition (50 h total growth time), culture media was aspirated and replaced with Live Imaging solution (ThermoFisher) supplemented with 10 μg/mL Hoeschst 33342 (Sigma) for 20 min at 37 °C. […] Alternatively, plates fixed with 4% formaldehyde for 10 min and stained with 10 μg/mL Hoeschst 33342 (Sigma) for 20 min and imaged using a Cytation 3 multi-mode imager (DAPI, 10x objective, 4 images/well) and nuclei quantified using the Gen5 imager software (v3.08). Assays were repeated with two technical replicates within each of two independent biological replicates.
All statistical analyses were conducted using Prism 9 (GraphPad Software, Inc.). Dose–response inhibition curves for parasite and host cell toxicity screens (EC50 values) were generated using (Log(inhibitor) vs. normalized response—Variable slope) function. […] For multiple comparisons, two-way ANOVA analysis function using either Sidák’s multiple comparisons test or Dunnett’s multiple comparisons test was applied as indicated.

| Compound | bioassay of brains of surviving treated mice in naive recipients ([1]; oral challenge model survivors, recipients monitored 20 days) | bioassay of brain homogenate of the surviving animal ([1]; reactivation model survivor) | pEC50 ([2]; GT1, all eight lineages, read-out: EC50 against tachyzoite growth, all lineages) | pEC50 ([2]; GT1, strain CTG, type III, N. America, read-out: EC50) | pEC50 ([2]; GT1, strain FOU, type VI, Europe, read-out: EC50) | pEC50 ([2]; GT1, strain GT1, type I, N. America, read-out: EC50) | pEC50 ([2]; GT1, strain MAS, type IV, Europe, read-out: EC50) | pEC50 ([2]; GT1, strain ME49, type II, Europe, read-out: EC50) | pEC50 ([2]; GT1, strain RH, type I, Europe, read-out: EC50) | pEC50 ([2]; GT1, strain RUB, type V, S. America, read-out: EC50) | pEC50 ([2]; GT1, strain VAND, type X, S. America, read-out: EC50) | HFF fold selectivity [3] [fold] |
| --- | --- | --- | --- | --- | --- | --- | --- | --- | --- | --- | --- | --- |
| COc1ccc(NC(=O)N2CCCCN3[C@H](CN(C)C)[C@H](c4ccc(C#Cc5ccccc5)cc4)[C@@H]3C2)cc1 [BRD7929] | All recipient mice survived and remained seronegative | failed to detect any residual infection | > 7.30 | 7.50 | 7.35 | 7.79 | 7.38 | 7.31 | 7.62 | 7.57 | 7.55 | – |
| COc1ccc(NC(=O)N2CCCCN3[C@H](CN(C)S(C)(=O)=O)[C@H](c4ccc(C#Cc5ccccc5)cc4)[C@@H]3C2)cc1 [BRD8494] | – | – | – | – | – | – | – | – | – | – | – | 571.4 |
